Laboratory results: the OligoGym collection
HELM strings list units from the 5' end as sugar, base in round brackets, then linkage (d deoxyribose, r ribose, m 2'-O-methyl, p phosphodiester). Strings are as the collection lists them; they lack the last nucleoside at the 3' end of the tested compound. [moe] = 2'-O-(2-methoxyethyl) (MOE); [sp] = phosphorothioate linkage; [m5C] = 5-methylcytosine

The substances below were run against PRNP (assay: mouse, dose not given). Conditions: ASO.

Q: With “RNA1{[moe](T)[sp].[moe](T)p.[moe](G)p.[moe]([m5C])p.[moe](A)[sp].d(G)[sp].d(G)[sp].d(T)[sp].d(A)[sp].d(A)[sp].d(G)[sp].d(T)[sp].d(T)[sp].d([m5C])[sp].d(T)[sp].[moe]([m5C])p.[moe](A)p.[moe](G)[sp].[moe](G)}$$$$ (last 3' nucleoside missing)” as the substance, how does the 3 h FOB score read?
A: 5.25 score 0-7

Q: How did the 3 h FOB score turn out when “RNA1{[moe](T)[sp].[moe](T)p.[moe](T)p.[moe](A)p.[moe]([m5C])[sp].d(T)[sp].d(T)[sp].d(T)[sp].d(T)[sp].d([m5C])[sp].d(A)[sp].d(G)[sp].d([m5C])[sp].d(T)[sp].d(G)[sp].[moe]([m5C])p.[moe]([m5C])p.[moe](T)[sp].[moe](T)}$$$$ (last 3' nucleoside missing)” was run?
A: 6 score 0-7

Q: “RNA1{[moe](T)[sp].[moe](T)p.[moe](T)p.[moe](G)p.[moe](A)[sp].d(T)[sp].d(T)[sp].d(T)[sp].d([m5C])[sp].d(A)[sp].d(A)[sp].d(G)[sp].d(T)[sp].d([m5C])[sp].d([m5C])[sp].[moe]([m5C])p.[moe](A)p.[moe](G)[sp].[moe](A)}$$$$ (last 3' nucleoside missing)” was tested. Which 3 h FOB score did it give?
A: 2.25 score 0-7

Q: With “RNA1{[moe](T)[sp].[moe](T)p.[moe](T)p.[moe](G)p.[moe](G)[sp].d(A)[sp].d(G)[sp].d(G)[sp].d([m5C])[sp].d(T)[sp].d([m5C])[sp].d(T)[sp].d(T)[sp].d(T)[sp].d(T)[sp].[moe](A)p.[moe](G)p.[moe](G)[sp].[moe](T)}$$$$ (last 3' nucleoside missing)” as the substance, how does the 3 h FOB score read?
A: 4 score 0-7

Q: Which 3 h FOB score does the source give for “RNA1{[moe](T)[sp].[moe](T)p.[moe](T)p.[moe](G)p.[moe]([m5C])[sp].d(T)[sp].d(G)[sp].d(T)[sp].d(T)[sp].d(A)[sp].d(T)[sp].d(A)[sp].d([m5C])[sp].d(T)[sp].d(T)[sp].[moe](T)p.[moe](T)p.[moe](A)[sp].[moe]([m5C])}$$$$ (last 3' nucleoside missing)” here?
A: 1.25 score 0-7

Q: For “RNA1{[moe](T)[sp].[moe](T)p.[moe]([m5C])p.[moe](A)p.[moe](G)[sp].d(A)[sp].d(T)[sp].d(T)[sp].d(T)[sp].d(T)[sp].d(T)[sp].d([m5C])[sp].d(A)[sp].d([m5C])[sp].d(A)[sp].[moe](T)p.[moe](A)p.[moe](T)[sp].[moe](G)}$$$$ (last 3' nucleoside missing)”, which 3 h FOB score is on record?
A: 1 score 0-7

Q: With “RNA1{[moe](T)[sp].[moe](T)p.[moe]([m5C])p.[moe]([m5C])p.[moe](A)[sp].d(G)[sp].d([m5C])[sp].d(T)[sp].d(T)[sp].d([m5C])[sp].d(T)[sp].d(T)[sp].d(A)[sp].d(A)[sp].d(T)[sp].[moe](G)p.[moe]([m5C])p.[moe](A)[sp].[moe](T)}$$$$ (last 3' nucleoside missing)” as the substance, how does the 3 h FOB score read?
A: 0 score 0-7

Q: Which 3 h FOB score does the source give for “RNA1{[moe](T)[sp].[moe]([m5C])p.[moe](A)p.[moe](G)p.[moe](T)[sp].d(G)[sp].d(T)[sp].d(T)[sp].d(G)[sp].d(T)[sp].d(G)[sp].d(A)[sp].d([m5C])[sp].d(A)[sp].d(A)[sp].[moe](T)p.[moe](A)p.[moe](T)[sp].[moe](T)}$$$$ (last 3' nucleoside missing)” here?
A: 4.25 score 0-7

Q: With “RNA1{[moe](T)[sp].[moe]([m5C])p.[moe](A)p.[moe](G)p.[moe](T)[sp].d(T)[sp].d(T)[sp].d(T)[sp].d(T)[sp].d([m5C])[sp].d([m5C])[sp].d([m5C])[sp].d([m5C])[sp].[moe](A)p.[moe]([m5C])p.[moe](A)[sp].[moe](T)}$$$$ (last 3' nucleoside missing)” as the substance, how does the 3 h FOB score read?
A: 0 score 0-7

Q: “RNA1{[moe](T)[sp].[moe]([m5C])p.[moe](A)p.[moe](G)p.[moe](T)p.d(T)[sp].d(T)[sp].d(T)[sp].d(T)[sp].d([m5C])[sp].d([m5C])[sp].d([m5C])[sp].d([m5C])[sp].d(A)[sp].[moe]([m5C])p.[moe](A)p.[moe](T)[sp].[moe](A)}$$$$ (last 3' nucleoside missing)” was tested. Which 3 h FOB score did it give?
A: 0 score 0-7
